Measurements taken from patent US20240115594A1, “DINUCLEOTIDES AND THEIR USE IN TREATING CANCER” (MAIA Biotechnology, Inc., priority 2022, published 2024).

What was measured:
Assay type in all cases: cell-based
[1] = tested on: HEK293; assay: IC50 determination / cytotoxicity in human cell lines (HEK293); details: HEK293 (Kidney), 96 h; for IC50: 10.000 cells per well, 96 well plates, read-out: IC50 [μM] relative to untreated cells
Description: (§1) Anticancer activity of the dinucleotides, (formulated and administered in PBS solutions), was evaluated in vitro in various cancer cell lines, according to a commonly used procedures for assessment of compounds cytotoxicity, as out lined in the following publications: Mender, I., Gryaznov, S., Dikmen, Z. G., Wright, W. E., & Shay, J. W. (2015). Induction of telomere dysfunction mediated by the telomerase substrate precursor 6-thio-2′-deoxyguanosine. Cancer Discovery, 5, 82-95; Mender et al., (2020). Telomere Stress Potentiates STING-Dependent Anti-tumor Immunity. Cancer Cell, 38, 400-411.

[2] = tested on: Hep3B; assay: IC50 determination / cytotoxicity in human cell lines (Hep3B); details: Hep3B (liver; childhood HCC), 96 h; for % max. toxicity @ 50 μM2: 50 μM; for IC50: 10.000 cells per well, read-out: IC50 [μM] relative to untreated cells
Description: as §1

[3] = tested on: HepG2; assay: IC50 determination / cytotoxicity in human cell lines (HepG2); details: HepG2 (liver; hepatoblastoma), 96 h; for % max. toxicity @ 50 μM3: 50 μM; for IC50: 10.000 cells per well, read-out: IC50 [μM] relative to untreated cells
Description: as §1

[4] = tested on: NCI-H23; assay: IC50 determination / cytotoxicity in human cell lines (NCI-H23); details: NCI-H23 (lung; adenocarcinoma), 96 h; for % max. toxicity @ 50 μM4: 50 μM; for IC50: 10.000 cells per well, read-out: IC50 [μM] relative to untreated cells
Description: as §1

[5] = tested on: Panc-1; assay: IC50 determination / cytotoxicity in human cell lines (Panc-1); details: 96 h; for % max. toxicity @ 50 μM5: 50 μM; for IC50: 10.000 cells per well, read-out: IC50 [μM] relative to untreated cells
Description: as §1

| SMILES | % max. toxicity @ 50 μM [1] | IC50 [1] | % max. toxicity @ 50 μM2 [2] | IC50 [2] | % max. toxicity @ 50 μM3 [3] | IC50 [3] | % max. toxicity @ 50 μM4 [4] | IC50 [4] | % max. toxicity @ 50 μM5 [5] | IC50 [5] |
| --- | --- | --- | --- | --- | --- | --- | --- | --- | --- | --- |
| Nc1nc2c(ncn2[C@H]2C[C@@H](O)[C@@H](COP(=O)(O)O[C@@H]3C[C@H](n4cnc5c(=S)[nH]c(N)nc54)O[C@@H]3CO)O2)c(=S)[nH]1 [Compound 1] | 94% | 0.28 µM | 92% | 0.68 µM | 94% | 0.15 µM | 93% | 0.07 µM | 95% | 0.18 µM |
| Nc1nc2c(ncn2[C@H]2C[C@@H](OP(=O)(O)OC[C@H]3O[C@@H](n4cc(F)c(=O)[nH]c4=O)C[C@H]3O)[C@@H](CO)O2)c(=S)[nH]1 [Compound 5] | 94% | 0.02 µM | 87% | 0.09 µM | 92% | 0.04 µM | 94% | 0.01 µM | 96% | 0.25 µM |
| Nc1nc2c(ncn2[C@H]2C[C@@H](O)[C@@H](COP(=O)(O)O[C@@H]3C[C@H](n4cc(F)c(=O)[nH]c4=O)O[C@@H]3CO)O2)c(=S)[nH]1 [Compound 6] | 93% | 0.01 µM | 82% | 0.06 µM | 89% | 0.06 µM | 92% | 0.02 µM | 88% | 0.25 µM |
| Nc1nc2c(ncn2[C@H]2C[C@@H](OP(O)(=S)OC[C@H]3O[C@@H](n4cc(F)c(=O)[nH]c4=O)C[C@H]3O)[C@@H](CO)O2)c(=S)[nH]1 (some centres unmarked) [Compound 11] | 86% | 0.63 µM | 62% | 1.12 µM | 71% | 0.61 µM | 79% | 1.11 µM | 80% | 5.12 µM |
| Nc1nc2c(ncn2[C@H]2C[C@@H](O)[C@@H](COP(O)(=S)O[C@@H]3C[C@H](n4cc(F)c(=O)[nH]c4=O)O[C@@H]3CO)O2)c(=S)[nH]1 (some centres unmarked) [Compound-12] | 86% | 0.61 µM | 59% | 3.68 µM | 49% | 1.15 µM | 81% | 2.55 µM | 48% | > 50 µM |
